From patent US8986676B2, “MNTF differentiation and growth of stem cells” (Genervon Biopharmaceuticals LLC, priority 2005, dated 2015)
Entries after “also recorded” stand apart in the source; their conditions may differ. Ends that are not written are not given here.

Key:
mouse ES cells [1] = assay: MNTF induced differentiation in the presence of Shh inhibitor (GFP fluorescence of embryoid bodies); assay type: cell-based; settings: inhibitor 5 μM, day 5; for effect of inhibitor on MNTF induced differentiation of ES cells: RA + MNTF 33mer at 10 μg/ul; for effect of inhibitor on the GFP fluorescence effect of Shh-Agonist: RA + Shh agonist
Protocol: The ES cells were differentiated as mentioned above and at day 0 they were treated with RA+Shh-Agonist; RA+Shh Agonist+Cyclopamine-KAAD (5 μM); RA+MNTF (33mer at 10 μg/ul); and RA+Cyclopamine-KAAD (5 μM)+MNTF (33mer at 10 μg/ul). The inhibitor was pretreated for an hour before the addition of the other components.
At day 5 of differentiation the embryoid bodies were checked for GFP fluoresence indicating the differentiation of the ES cells into a motor neuron phenotype.
Receptor kinase studies were used to measure the affinity of MNTF for the Insulin Receptor (IR). […] We then tested whether signals through either of these pathways are possible in generating motor neurons. […] Thus, MNTF is still capable of generating post-mitotic mature motor neurons.
FIG. 5 illustrates a comparison of the expression of GFP fluorescence under the control of the motor neuron specific HB9 promoter at day 5 of differentiation in response to control (A), RA (3); RA/Shh (C); cyclopamine-KAAD, RA/Shh (D); RA and MNTF 33mer (E); Cyclopamine-KAAD, RA and MNTF 33mer (F).

[2] = tested on: ES cells derived from an HB9-GFP-transgenic mouse; assay: Differentiation of ES cells into motor neurons (eGFP under HB9 promoter in embryoid bodies); assay type: cell-based; settings: for expression of eGFP under the control of the HB9 promoter (green fluorescence of EBs) compared with RA and Shh agonist: EBs treated with RA (1 μM) and peptide; for differentiation of ES cells into motor neurons: in the presence of RA; for concentration at which elevated fluorescence was detectable (as low as) / concentration at which fluorescence appeared to be optimal: with RA; for concentration at which fluorescence appeared to be optimal: in this experiment
Protocol: ES cells were derived from an HB9-GFP-transgenic mouse and fluoresce green upon adoption of a motoneuron phenotype [Wichterle, H. et al. ([…]) Cell 110, 385-397, incorporated herein by reference]. The mouse ES cells were maintained in a proliferative and undifferentiated state in the presence of murine LIF (Chemicon). The ES cells were cultured on a feeder layer of primary mouse embryonic fibroblasts that were mitomycin treated.
Mouse ES cells were separated from the feeder layer of fibroblasts. This was done by trypsinizing and plating the cell mixture on cell culture flasks coated with 0.1% gelatin. The fibroblasts attached specifically on the gelatin leaving a pure population of floating ES cells. The floating ES cells were collected and resuspended in differentiating medium. This stage was called “d−1”. The ES cells formed embryoid bodies (EBs) and 24 hours later (“d0”) were exposed to RA (1 μM)+MNTF or RA (1 μM)+Shh agonist (1 μM). MNTF peptides (all six forms) were tested at a final concentration range of 0.1 μg/ml-150 μg/ml.
The differentiation assay was carried for six days from “d−1” stage.

IR/IGF1R [pYpY1162/1163] = assay: Autophosphorylation of Insulin/IGF receptor(s), western blot of embryoid bodies; assay type: cell-based, mouse; settings: for autophosphorylation of IR/IGF-R (pTyr 1162/1163): RA (1 μM) + MNTF 33mer (10 μg/ml), FIG. 3
Protocol: Embryoid bodies (EBs) were exposed to RA (1 μM)+MNTF 33mer (10 μg/ml) or RA (1 μM)+MNTF 33mer (10 μg/ml)+/−HNMPA-(AM)3 (50 nM). Cells were harvested at 0, 15 min, 30 min, 1 h, 2 h and 4 h time points.
The cells were harvested as described previously [Barber, A. J. et al., (2001) J. Biol. Chem. 276, 32814-32821]. Protein concentrations were measured with the Pierce BCA reagent, and all samples were adjusted for equal protein before SDS-polyacrylamide gel electrophoresis.
Cell lysates were immunoblotted with polyclonal antibodies against phosphotyrosines 1162-1163 of IR/IGFR1 following the manufacturer's directions or standard techniques. Protein bands were detected by enhanced chemical fluorescence. Densitometric analysis of enhanced chemical fluorescence immunoblots was performed with ImageQuant (Molecular Dynamics, Sunnyvale, Calif.).

[3] = tested on: ES cell-derived motor neurons; assay: Survival of ES cell-derived motor neurons in dissociated cultures; assay type: cell-based, mouse; settings: for maintaining dissociated cultures: dissociated ES-derived motor neuron cultures; for enhancement of survival of stem cell derived motor neurons: percentage survivability on day ten, FIG. 4
Protocol: Mouse embryonic stem (ES) cells were differentiated in the presence of RA and Hg-agonist (Curis, Inc.). On day four, the differentiated embryoid bodies were partially dissociated with 0.05% trypsin or Collagenase and Dispase (1 mg/ml in PBS) and plated on coverslips coated with PLL-Laminin and matrigel.
The dissociated cultures were then treated with GDNF (10 ng/ml), MNTF (all seven forms) at different doses (0.1 μg/ml, 1 μg/ml, 10 μg/ml and 50 μg/ml), and dbcAMP (1 μM), NT3 (10 μg/ml) at day five.
Neurons and their axons were identified by using the fluorescence produced by GFP expressed from the HB9 promoter. Neurite outgrowth can be quantified as described previously [Harper, J. M. et al. (2004) PNAS 101, 7123-7128, incorporated herein by reference] at day six, eight and ten. Percentage survivability was calculated on day ten by counting the total number of cells with existing axons.

mouse ES cells [4] = assay: Differentiation of ES cells in the presence of IR or IGF1-R inhibitor (GFP fluorescence of day 5 embryoid bodies); assay type: cell-based; settings: for effect of inhibitor on MNTF induced differentiation (GFP fluorescence): HNMPA(AM)3 15 μM or PPP 1 μM, RA/MNTF33 or RA/MNTF10, FIG. 6
[5] = tested on: motor neuron derived cell lines; settings: compared with MNTF1-F6 33-mer; cited from earlier work
motor neurons = settings: in vivo, compared with MNTF1-F6 33-mer; cited from earlier work
[6] = tested on: anterior horn motor neurons; settings: rat lumbar spinal cord explants; cited from earlier work
surviving motor neurons = settings: axotomized rat peripheral nerves, versus untreated controls; cited from earlier work
spinal cord hemi-section = settings: rats, MNTF1-containing gel sections near nerve graft junctions; cited from earlier work
wobbler mice = settings: MNTF1-containing gel sections implanted at C7-T3 region; cited from earlier work

For “3-keto-N-(aminoethyl-aminocaproyl-dihydrocinnamoyl)cyclopamine [Cyclopamine-KAAD]”, the “effect of inhibitor on MNTF induced differentiation of ES cells” value (mouse ES cells [1]) was “did not block MNTF induced differentiation of ES cells”, the “effect of inhibitor on MNTF induced differentiation of ES cells” value (mouse ES cells [1]; listed as cyclopamine-KAAD) was “did not block the activity of MNTF induced differentiation” and the “effect of inhibitor on the GFP fluorescence effect of Shh-Agonist” value (mouse ES cells [1]) was “blocked the GFP fluoresence effect of Shh-Agonist”. For the same compound, the “effect of inhibitor on the GFP fluorescence effect of Shh-Agonist” value (mouse ES cells [1]; listed as cyclopamine-KAAD) was “blocks the effect of Shh on mouse ES cells”.

In the case of “33mer: 33 amino acid MNTF1-F6 sequence (SEQ ID NO:1), synthesized by solid phase synthesis (LGTFWGDTLNCWMLSAFSRYARCLAEGHDGPTQ)”, the “expression of eGFP under the control of the HB9 promoter (green fluorescence of EBs) compared with RA and Shh agonist” value ([2]; FIG. 2) is reported as “to the same extent or greater than EBs treated with RA and Shh agonist”, the “differentiation of ES cells into motor neurons” value [2] is reported as “effectively substitute for Sonic Hedgehog” and the “differentiation of ES cells into motor neurons” value ([2]; listed as 33-mer) is reported as “induced differentiation of ES cells into motor neurons; also recorded: capable of inducing differentiation of ES cells into differentiated motor neurons”. For the same compound, the concentration at which elevated fluorescence was detectable (as low as) ([2]; FIG. 2) was 0.1 µg/mL, the “concentration at which fluorescence appeared to be optimal” value [2] was “about 10 μg/ml” and the “autophosphorylation of IR/IGF-R (pTyr 1162/1163)” value (IR/IGF1R [pYpY1162/1163]) was “autophosphorylation of IR/IGF-R”. For the same compound, the “autophosphorylation of IR/IGF-R (pTyr 1162/1163)” value (IR/IGF1R [pYpY1162/1163]; listed as MNTF1 33-mer) was “associated with autophosphorylation of the insulin receptor (IR) and/or insulin-like growth factor receptor (IGF-R)” and the maintaining dissociated cultures [3] was “effective at maintaining dissociated cultures up to 10 days”.

For `CC(=O)OCOC(c1ccc2ccccc2c1)P(=O)(OCOC(C)=O)OCOC(C)=O` (stereo not drawn) [HNMPA-(AM)3, Hydroxy-2-naphthalenylmethylphosphonic acid trisacetoxymethyl ester], the “effect of IR inhibitor on autophosphorylation of IR/IGF-R in MNTF 33mer treated cells” value (IR/IGF1R [pYpY1162/1163]; HNMPA-(AM)3 50 nM with RA + MNTF 33mer (10 μg/ml)) was “reduced autophosphorylation within 15 min”, the “effect of inhibitor on MNTF induced differentiation (GFP fluorescence)” value (mouse ES cells [4]) was “blocks the effect of MNTF on mouse ES cells” and the “effect of inhibitor on Shh induced differentiation (GFP fluorescence)” value (mouse ES cells [4]; HNMPA(AM)3 15 μM, FIG. 6) was “did not block the activity of Shh induced differentiation”.

For `COc1cc([C@@H]2c3cc4c(cc3[C@H](O)[C@H]3COC(=O)[C@@H]23)OCO4)cc(OC)c1OC` [picrodophyllin], the “effect of inhibitor on MNTF induced differentiation (GFP fluorescence)” value (mouse ES cells [4]) was “does not effectively block the activity of MNTF induced differentiation”.

In the case of FSRYAR [6mer], the “enhancement of survival of stem cell derived motor neurons” value (shortened to “enhancement”) [3] is listed as “sufficient to enhance survival of stem cell derived motor neurons”, the “proliferation of motor neuron derived cell lines” value [5] is listed as “sufficient to stimulate the proliferation of motor neuron derived cell lines” and the “selective reinnervation of muscle targets by motor neurons” value (motor neurons) is listed as “sufficient to direct selective reinnervation of muscle targets”.

With “FSRYARCLAEG (Synthetic MNTF peptide analog) [11mer]” the “enhancement” value [3] was “sufficient to enhance survival of stem cell derived motor neurons”.

In the case of “MLSAFSRYAR (Synthetic MNTF peptide analog) [10mer]”, the “expression of eGFP under the control of the HB9 promoter (green fluorescence of EBs) compared with RA and Shh agonist” value ([2]; FIG. 2) is reported as “to the same extent or greater than EBs treated with RA and Shh agonist”, the “differentiation of ES cells into motor neurons” value [2] is reported as “effectively substitute for Sonic Hedgehog” and the “differentiation of ES cells into motor neurons” value ([2]; listed as MNTF 10-mer) is reported as “capable of inducing differentiation of ES cells into differentiated motor neurons”. The “concentration at which differentiation is stimulated (as low as)” value ([2]; in vitro, FIG. 2) was 0.01 µg/mL, the “effectiveness at stimulating differentiation of embryonic stem cells into motor neurons compared with MNTF 33mer” value ([2]; in vitro, FIG. 2) was “at least as effective the full-length MNTF 33mer” and the concentration at which elevated fluorescence was detectable (as low as) ([2]; FIG. 2) was 0.1 µg/mL. The “concentration at which fluorescence appeared to be optimal” value [2] was “about 10 μg/ml”, the maintaining dissociated cultures [3] was “effective at maintaining dissociated cultures up to 10 days” and the “enhancement” value [3] was “nearly as effective as the MNTF 33mer”.

For “MLSAFSRYARCLAEGHDGPTQ (CWMLSAFSRYARC; Synthetic MNTF peptide sequence) [21mer]”, the “enhancement” value [3] was “sufficient to enhance survival of stem cell derived motor neurons”.

In the case of “MNTF1: naturally occurring and recombinant motoneuronotrophic factor 1 polypeptides; in b137 the word stands for the synthetic 33-mer (LGTFWGDTLNCWMLSAFSRYARCLAEGHDGPTQ)”, the “survival in vitro of anterior horn motor neurons” value [6] is listed as “selectively enhance the survival”, the “percentage of surviving motor neurons” value (surviving motor neurons) is listed as “markedly higher percentage of surviving motor neurons than untreated controls” and the “surviving motor neurons and functional recovery” value (spinal cord hemi-section) is listed as “greater numbers of surviving motor neurons, improved recovery of motor and sensory function”. The progression of symptoms (wobbler mice) was “delayed the progression of symptoms in wobbler mice”.

In the case of WMLSAFS [7mer], the “enhancement” value [3] is listed as “sufficient to enhance survival of stem cell derived motor neurons” and the “proliferation of motor neuron derived cell lines” value [5] is listed as “sufficient to stimulate the proliferation of motor neuron derived cell lines”.
